Source: patent publication US20240366589A1, “NHE3-BINDING COMPOUNDS AND METHODS FOR INHIBITING PHOSPHATE TRANSPORT” (Ardelyx, Inc., priority 2013, published 2024)

Columns and labels:
human NaP2b (SLC34A2) = biological target: T1, human NaP2b (SLC34A2) (Homo sapiens, UniProt O95436); assay: Cell-based assay of NaP2b activity (33P uptake, transfected HEK293 cells), human NaP2b isoform a; conditions: Table E5; HEK293, 33P uptake; dihydrochloride salt
T1 construct: host or cells: HEK293 cells (ATCC), Lipofectamine 2000, transient
T1 sequence (O95436 1-690): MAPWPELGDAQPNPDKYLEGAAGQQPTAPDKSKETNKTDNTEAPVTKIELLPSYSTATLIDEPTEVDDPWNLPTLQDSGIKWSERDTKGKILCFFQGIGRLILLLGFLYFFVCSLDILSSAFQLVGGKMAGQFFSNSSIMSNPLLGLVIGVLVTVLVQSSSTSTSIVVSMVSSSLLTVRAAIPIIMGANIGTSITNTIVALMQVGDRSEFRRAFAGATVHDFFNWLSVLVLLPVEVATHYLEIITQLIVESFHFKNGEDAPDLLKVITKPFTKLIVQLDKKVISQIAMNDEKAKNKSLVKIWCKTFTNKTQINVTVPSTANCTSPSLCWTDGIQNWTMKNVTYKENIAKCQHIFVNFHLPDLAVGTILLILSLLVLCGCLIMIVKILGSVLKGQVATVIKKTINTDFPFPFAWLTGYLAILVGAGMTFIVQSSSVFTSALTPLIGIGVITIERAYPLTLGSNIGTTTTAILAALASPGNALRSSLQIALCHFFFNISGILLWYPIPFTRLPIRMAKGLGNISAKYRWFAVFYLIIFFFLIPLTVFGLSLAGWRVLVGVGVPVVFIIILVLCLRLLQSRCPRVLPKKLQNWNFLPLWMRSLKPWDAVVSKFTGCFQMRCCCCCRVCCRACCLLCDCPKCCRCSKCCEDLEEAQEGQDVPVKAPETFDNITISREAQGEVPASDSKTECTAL
Method: Cell-based assay of NaP2b activity. The rate of phosphate (Pi) uptake into cells was measured using a modification of a literature method (see Mohrmann et al. Am. J Phys. 250(3 pt 1):G323-30, 1986). Briefly, HEK293 cells were transiently transfected with an expression clone encoding either rat or human NaP2b. The next day, transfected cells were treated with a pharmacological agent to minimize endogenous PiT-mediated phosphate transport activity, such that the only remaining sodium-dependent phosphate transport activity is that which was bestowed by introduction of the NaP2b gene. Cells were incubated with radioactive inorganic phosphate in the presence or absence of varying concentrations of test compound. After a short time, cells were washed, harvested, and the amount of hot phosphate taken up in the cells determined by liquid scintillation counting.
HEK293 cells were obtained from the American Type Culture collection and propagated per their instructions. […]
Cells were seeded into 96-well plates at 25,000 cells/well and cultured overnight. […] Cells were lysed by addition of 20 μL 0.1% Tween 80 followed by 100 μL scintillation fluid, and counted using a TopCount (Perkin Elmer). The pIC50 (the negative log of the IC50) values of the test compounds were calculated using GraphPad Prism.

[1] = test system: absorption of sodium from the intestinal lumen; assay: Fecal form score (FFS) 16 h after oral dose in rats; assay type: in vivo, rat; conditions: in words
Method in brief: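 Fecal form was scored at 16 h post-dose on a 1–5 wetness scale (normal pellet to liquid stream), with two independent observations averaged across six rats per group. Animals were 8-week-old Sprague-Dawley rats given test compound or water orally in the late afternoon and kept in metabolic cages.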

Row | SMILES | pIC50 Human Nap2B (human NaP2b (SLC34A2)) | effect on fecal form [1]
1 | CN1Cc2c(Cl)cc(Cl)cc2[C@H](c2cccc(S(=O)(=O)NCCOCCOCCNC(=O)NCCCCNC(=O)NCCOCCOCCNS(=O)(=O)c3cccc([C@@H]4CN(C)Cc5c(Cl)cc(Cl)cc54)c3)c2)C1 [Cpd 002] | <4.5 | 
2 | CN1Cc2c(Cl)cc(Cl)cc2[C@@H](c2cccc(S(=O)(=O)NCCOCCOCCNC(=O)NCCCCNC(=O)NCCOCCOCCNS(=O)(=O)c3cccc([C@H]4CN(C)Cc5c(Cl)cc(Cl)cc54)c3)c2)C1 [Cpd 004] |  | no significant effect
